Test [1] concerns the target T1, Amine oxidase [flavin-containing] B (Homo sapiens, UniProt P27338).
T1 sequence (P27338 whole entry): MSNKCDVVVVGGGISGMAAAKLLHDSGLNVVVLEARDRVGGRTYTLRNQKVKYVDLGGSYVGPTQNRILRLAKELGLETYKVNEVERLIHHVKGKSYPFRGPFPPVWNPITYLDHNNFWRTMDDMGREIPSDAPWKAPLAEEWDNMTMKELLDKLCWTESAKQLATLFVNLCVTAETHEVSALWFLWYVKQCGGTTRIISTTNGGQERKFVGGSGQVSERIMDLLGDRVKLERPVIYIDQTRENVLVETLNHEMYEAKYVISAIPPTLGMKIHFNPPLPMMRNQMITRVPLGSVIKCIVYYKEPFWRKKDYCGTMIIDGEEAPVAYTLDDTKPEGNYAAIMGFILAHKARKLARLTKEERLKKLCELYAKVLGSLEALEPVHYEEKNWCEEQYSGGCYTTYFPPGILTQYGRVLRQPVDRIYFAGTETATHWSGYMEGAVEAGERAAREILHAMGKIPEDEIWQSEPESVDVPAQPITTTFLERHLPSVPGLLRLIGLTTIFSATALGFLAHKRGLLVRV

The species named for test [2] is Homo sapiens. The test is described as follows: Selectivity index, ratio of Ki for human MAO-A to Ki for human MAO-B.
The target of test [3] is T2, Amine oxidase [flavin-containing] A (Homo sapiens, UniProt P21397).
T2 sequence (P21397 whole entry): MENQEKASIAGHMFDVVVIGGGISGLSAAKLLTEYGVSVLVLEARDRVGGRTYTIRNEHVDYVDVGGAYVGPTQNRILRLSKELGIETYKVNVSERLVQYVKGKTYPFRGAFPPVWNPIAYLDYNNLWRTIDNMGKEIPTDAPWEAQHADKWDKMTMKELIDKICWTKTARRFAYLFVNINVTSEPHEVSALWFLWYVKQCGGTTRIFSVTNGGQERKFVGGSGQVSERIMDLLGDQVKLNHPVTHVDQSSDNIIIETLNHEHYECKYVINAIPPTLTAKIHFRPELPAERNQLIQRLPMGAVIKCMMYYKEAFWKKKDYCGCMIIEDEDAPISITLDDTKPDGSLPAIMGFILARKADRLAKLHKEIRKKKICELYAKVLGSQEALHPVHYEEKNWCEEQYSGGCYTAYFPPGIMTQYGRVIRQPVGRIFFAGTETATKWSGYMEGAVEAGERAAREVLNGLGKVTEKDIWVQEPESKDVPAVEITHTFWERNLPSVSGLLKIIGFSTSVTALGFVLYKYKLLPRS

The target in test [4] is T3, Carbonic anhydrase 2 (Homo sapiens, UniProt P00918). Nature of the test: Inhibition of human recombinant CA2.
Test [5] concerns the target T4, Carbonic anhydrase 1 (Homo sapiens, UniProt P00915). The test is described as follows: Inhibition of human recombinant CA1.
Test [6] deals with Carbonic anhydrase 9 (Homo sapiens, UniProt Q16790).
For test [7], the target named is Carbonic anhydrase 4 (Homo sapiens, UniProt P22748). Nature of the test: Inhibition of human recombinant CA4.
The species named for test [8] is Mus musculus. Nature of the test: Antidepressant activity in Swiss albino mouse assessed as decrease in immobility time by tail suspension test. It counts as functional.
The species named for test [9] is Mus musculus. Nature of the test: Antidepressant activity in Swiss albino mouse assessed as decrease in immobility time by forced swimming test. The format is functional.
For test [10], the species on record is Mus musculus. The test is described as follows: Antidepressant activity in mouse assessed as […] by tail suspension test. The format is functional.
The species entered for test [11] is Mus musculus. The test is described as follows: Antidepressant activity in mouse assessed as […] by forced swimming test. The format is functional.
Test [12] in a line: Cytotoxicity against human HGF cells assessed as reduction in cell viability incubated for 48 hrs by MTT assay. It counts as functional.
In test [13] the test system is HSC-3. Nature of the test: Cytotoxicity against human HSC-3 cells assessed as reduction in cell viability incubated for 48 hrs by MTT assay. The format is functional.
The nature of test [14]: Cytotoxicity against human HPLF cells assessed as reduction in cell viability incubated for 48 hrs by MTT assay. The format is functional.
The test system of test [15] is Ca9-22. The test is described as follows: Cytotoxicity against human Ca9-22 cells assessed as reduction in cell viability incubated for 48 hrs by MTT assay. It counts as functional.
For test [16], the system named is HSC-2. The test is described as follows: Cytotoxicity against human HSC-2 cells assessed as reduction in cell viability incubated for 48 hrs by MTT assay. It counts as functional.
Test [17] can be described thus: Cytotoxicity against human HPC cells assessed as reduction in cell viability incubated for 48 hrs by MTT assay. The format is functional.
In test [18] the target is Carbonic anhydrase 12 (Homo sapiens, UniProt O43570). Nature of the test: Inhibition of human CA12 preincubated for 15 mins by phenol red dye based stopped flow CO2 hydration assay.
In test [19] the target is T4, Carbonic anhydrase 1.
Test [20] deals with T3, Carbonic anhydrase 2.

The text below walks through data of ChEMBL document CHEMBL5260848, “Recent advancements in the development of bioactive pyrazoline derivatives” (Eur J Med Chem, 2020).

T4 sequence (P00915 whole entry): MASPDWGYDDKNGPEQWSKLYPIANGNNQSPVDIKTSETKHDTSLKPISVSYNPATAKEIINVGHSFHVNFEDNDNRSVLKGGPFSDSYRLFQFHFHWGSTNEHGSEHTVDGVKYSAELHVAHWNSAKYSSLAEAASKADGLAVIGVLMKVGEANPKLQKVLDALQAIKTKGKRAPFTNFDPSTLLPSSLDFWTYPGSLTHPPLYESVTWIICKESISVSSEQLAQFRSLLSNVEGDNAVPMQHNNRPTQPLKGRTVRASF
Carbonic anhydrase 4, sequence (P22748 whole entry): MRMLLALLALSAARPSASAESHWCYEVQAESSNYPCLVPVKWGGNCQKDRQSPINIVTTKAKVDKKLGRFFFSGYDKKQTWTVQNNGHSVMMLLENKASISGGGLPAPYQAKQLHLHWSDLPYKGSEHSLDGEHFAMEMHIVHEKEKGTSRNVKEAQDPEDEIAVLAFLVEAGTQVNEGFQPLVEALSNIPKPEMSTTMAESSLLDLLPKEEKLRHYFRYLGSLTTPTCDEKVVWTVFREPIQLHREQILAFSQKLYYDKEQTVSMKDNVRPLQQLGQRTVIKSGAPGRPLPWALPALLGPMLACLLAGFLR
Carbonic anhydrase 12, sequence (O43570 whole entry): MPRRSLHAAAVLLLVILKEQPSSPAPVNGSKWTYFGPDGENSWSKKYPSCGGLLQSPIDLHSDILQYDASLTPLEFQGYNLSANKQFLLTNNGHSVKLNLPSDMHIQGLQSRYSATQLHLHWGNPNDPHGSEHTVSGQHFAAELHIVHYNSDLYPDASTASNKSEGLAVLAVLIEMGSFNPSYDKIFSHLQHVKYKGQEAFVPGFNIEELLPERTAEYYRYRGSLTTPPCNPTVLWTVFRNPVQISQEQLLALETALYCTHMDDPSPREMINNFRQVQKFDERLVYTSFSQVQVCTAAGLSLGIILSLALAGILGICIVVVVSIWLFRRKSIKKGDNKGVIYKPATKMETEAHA

Regarding `CNC(=S)N1N=C(c2ccc(OC)cc2)CC1c1ccc(F)cc1` (centres undefined), the values for the Ki in test [1] and in test [3] were 200 nM and 0.1 nM, respectively. Further, the Ratio Ki in test [2] was 0.000464.
For the compound `C=CCNC(=S)N1N=C(c2ccc(C)cc2)CC1c1ccc(F)cc1` (centres undefined), the Ki in [1] was found to be 200 nM; in test [3], 0.1 nM. The Ratio Ki in [2] came to 0.000464.
In the case of `CC(=O)N1N=C(c2ccc(OS(N)(=O)=O)cc2)CC1c1cc(Cl)ccc1Cl` (centres undefined), the Ki in [4] is 0.4 nM; in test [5] it was 2460 nM; in test [6], 14.8 nM; in test [7], 17.7 nM.
As for `Cc1nc(-c2cccc(Cl)c2Cl)ccc1C1=NNC(c2ccc(Br)cc2)C1` (centres undefined), the Time in [8] was found to be 70.33 s; in [9], 66.67 s.
As for `c1csc(C2CC(c3cccc4ccccc34)=NN2)c1` (centres undefined), the Time in [10] and in [11] was 21.17 s each time.
In the case of `Oc1ccc(C2=NNC(c3cccs3)C2)cc1` (centres undefined), the Time in test [10] and in test [11] was 21.17 s in each case.
On to `COc1cc(-c2ccc(C3=NNC(c4ccc(Br)cc4)C3)c(C)n2)cc(OC)c1OC` (centres undefined), for which the Time in test [8] amounted to 70.33 s; in test [9] it was 66.67 s.
Take `COc1ccc(C2CC(c3cccc4ccccc34)=NN2)cc1OC` (centres undefined): the Time in test [10] is recorded as 36.83 s; in [11], 21.17 s.
In the same order, the values of `Clc1ccc(C2CC(c3cccc4ccccc34)=NN2)cc1` (centres undefined) are 29.67 s and 43.33 s.
On to `CC(=O)N1N=C(c2ccc(OS(N)(=O)=O)cc2)CC1c1ccccc1` (centres undefined), for which the Ki in test [4] is 0.4 nM; in test [5] it was 2460 nM; in [6] it was 14.8 nM; in [7] it was 17.7 nM.
With `Oc1ccc(C2=NNC(c3ccco3)C2)cc1` (centres undefined), the Time in [10] and in test [11] was 21.17 s each time.
Consider `COc1ccc(C2CC(c3ccccn3)=NN2)cc1OC` (centres undefined), for which the Time in test [10] and in test [11] was 21.17 s in each case.
As to `CC(=O)N1N=C(c2ccc(F)cc2)CC1c1cccc(OS(N)(=O)=O)c1` (centres undefined), the Ki turned out to be 0.4 nM in test [4], 2460 nM in [5], 14.8 nM in [6] and 17.7 nM in test [7].
Turning to `C=CCNC(=S)N1N=C(c2ccc(OC)cc2)CC1c1ccc(F)cc1` (centres undefined), the values for the Ki in test [1] and in test [3] were 200 nM and 0.1 nM, respectively.
`CNC(=S)N1N=C(c2ccc(Cl)cc2)CC1c1ccc(F)cc1` (centres undefined): the figures for the inhibition constant (Ki) in test [1] and in [3] were 200 nM and 0.1 nM, respectively. Further, the Ratio Ki in test [2] is 0.000464.
In the case of `Clc1ccc(C2=NNC(c3ccc(Cl)cc3)C2)cc1` (centres undefined), the Time in [10] and in test [11] was 21.17 s throughout.
In the case of `CCNC(=S)N1N=C(c2ccc(Cl)cc2)CC1c1ccc(F)cc1` (centres undefined), the values for the inhibitory constant (Ki) in [1] and in [3] were 200 nM and 0.1 nM, respectively. For the same compound, the Ratio Ki in test [2] amounted to 0.000464.
In the same order, the values of `CNC(=S)N1N=C(c2ccc(C)cc2)CC1c1ccc(F)cc1` (centres undefined) are 200 nM, 0.1 nM and 0.000464.
Turning to `CC(=O)N1N=C(c2ccc(OS(N)(=O)=O)cc2)CC1c1ccccc1Cl` (centres undefined), the Ki in [4] is 0.4 nM; in test [5], 2460 nM; in [6], 14.8 nM; in test [7], 17.7 nM.
With `Clc1ccc(C2=NNC(c3cccs3)C2)cc1` (centres undefined), the Time in [10] and in test [11] was 21.17 s throughout.
As for `C=CCNC(=S)N1N=C(c2ccccc2)CC1c1ccc(F)cc1` (centres undefined), the Ki stood at 200 nM in test [1] and 0.1 nM in test [3]. In addition, in [2], the Ratio Ki was 0.000464.
On to `CCNC(=S)N1N=C(c2ccc(OC)cc2)CC1c1ccc(F)cc1` (centres undefined), for which the Ki worked out at 200 nM in test [1] and 0.1 nM in test [3]. The Ratio Ki in [2] came to 0.000464.
`Cc1nc(-c2ccc(Br)cc2)ccc1C1=NNC(c2ccc(Br)cc2)C1` (centres undefined): the Time in test [8] came out at 70.33 s; in test [9], 66.67 s.
Regarding `CC(=O)N1N=C(c2ccc(OS(N)(=O)=O)cc2)CC1c1ccc([N+](=O)[O-])cc1` (centres undefined), the Ki in test [4] came out at 0.4 nM; in test [5] it was 2460 nM; in [6] it was 14.8 nM; in test [7], 17.7 nM.
Regarding `Fc1ccc(C2CC(c3ccccc3)=NN2C(=S)Nc2ccccc2)cc1` (centres undefined), the Ki came to 200 nM in [1] and 0.1 nM in test [3]. Besides, the Ratio Ki in test [2] turned out to be 0.000464.
On the same counts, the results for `Fc1ccc(C2CC(c3ccc(Cl)cc3)=NN2C(=S)Nc2ccccc2)cc1` (centres undefined) are 200 nM, 0.1 nM and 0.000464.
On to `COc1ccc(-c2ccc(C3=NNC(c4ccc(Br)cc4)C3)c(C)n2)cc1OC` (centres undefined), for which the Time in [8] amounted to 70.33 s; in test [9] it was 66.67 s.
`CCNC(=S)N1N=C(c2ccc(C)cc2)CC1c1ccc(F)cc1` (centres undefined): the Ki in test [1] came to 200 nM; in test [3], 0.1 nM. Also, the Ratio Ki in test [2] was determined as 0.000464.
Turning to `Cc1ccc(C2CC(c3ccc(O)cc3)=NN2c2ccc(S(N)(=O)=O)cc2)cc1` (centres undefined), the 50% cytotoxic concentration (CC50) in test [12], in test [13], in test [14], in test [15], in test [16] and in test [17] was 39300 nM throughout.
Turning to `Clc1ccc(C2CC(c3ccccn3)=NN2)cc1` (centres undefined), the Time in test [10] and in test [11] was 21.17 s throughout.
In the case of `c1ccc(C2=NNC(c3cccs3)C2)nc1` (centres undefined), the Time in test [10] and in [11] was 21.17 s in each case.
Consider `Cc1nc(-c2cccc(Cl)c2Cl)ccc1C1=NNC(c2cc(F)cc(F)c2)C1` (centres undefined), for which the Time in [8] amounted to 70.33 s; in test [9], 66.67 s.
`C=CCNC(=S)N1N=C(c2ccc(Cl)cc2)CC1c1ccc(F)cc1` (centres undefined): the results for the Ki in test [1] and in test [3] were 200 nM and 0.1 nM, respectively. Moreover, the Ratio Ki in test [2] came to 0.000464.
With `c1coc(C2CC(c3cccc4ccccc34)=NN2)c1` (centres undefined), the Time in [10] and in test [11] was 21.17 s in each case.
Take `Cc1nc(-c2ccc(F)cc2)ccc1C1=NNC(c2ccc(Br)cc2)C1` (centres undefined): the figures for the Time in test [8] and in test [9] were 70.33 s and 66.67 s, respectively.
On to `COc1ccc(C2=NN(C(=S)Nc3ccccc3)C(c3ccc(F)cc3)C2)cc1` (centres undefined), for which the Ki in [1] is 200 nM; in test [3] it was 0.1 nM. The Ratio Ki in [2] is 0.000464.
Take `Clc1ccc(C2=NNC(c3ccco3)C2)cc1` (centres undefined): the Time in [10] and in test [11] was 21.17 s each time.
`Cc1nc(-c2ccc(F)cc2)ccc1C1=NNC(c2cc(F)cc(F)c2)C1` (centres undefined): the results for the Time in test [8] and in test [9] were 70.33 s and 66.67 s, respectively.
With `NS(=O)(=O)c1ccc(N2N=C(c3ccc(O)cc3)CC2c2cccs2)cc1` (centres undefined), the CC50 in [12], in test [13], in test [14], in test [15], in test [16] and in test [17] was 39300 nM throughout. Also, the figures for the Ki in [18], in test [19] and in test [20] were 6.2 nM, 232 nM and 342 nM, respectively.
On to `Cc1nc(-c2ccc(Br)cc2)ccc1C1=NNC(c2cc(F)cc(F)c2)C1` (centres undefined), for which the Time in test [8] is reported as 70.33 s; in [9] it was 66.67 s.
In the case of `CNC(=S)N1N=C(c2ccccc2)CC1c1ccc(F)cc1` (centres undefined), the figures for the inhibition constant Ki in test [1] and in [3] were 200 nM and 0.1 nM, respectively. Moreover, in test [2], the Ratio Ki was determined as 0.000464.
In the same order, the values of `CCNC(=S)N1N=C(c2ccccc2)CC1c1ccc(F)cc1` (centres undefined) are 200 nM, 0.1 nM and 0.000464.
